Molecules are shown by their SMILES.

The experiment deals with tumour cells (for example commercially available colon carcinoma cell lines). In words: Inhibition of the proliferation/vitality of tumour cells in vitro (Crystal Violet staining). It is filed as cell-based. The following applies: 48 hours incubation with test substance, serum-containing medium, Crystal Violet absorbance, value given as range. As for the experimental part: In the present experiment description, the inhibition of tumour cell proliferation/tumour cell vitality by active ingredients is described.
The cells are sown in a suitable cell density in microtitre plates (96-well format). On the next day, the test substances are added in the form of a concentration series. After two further days of cultivation in serum-containing medium, the cell density is determined photometrically by staining the cells with Crystal Violet.
For example commercially available colon carcinoma cell lines.
The cells are cultivated in medium. At intervals of 3-4 days, the cells are detached from the culture dishes with the aid of trypsin solution and sown in suitable dilution in fresh medium. The cells are cultivated at 37° Celsius and 10% CO2.
• A cell culture bottle is washed with 1×PBS • Addition of 3 ml of 1× trypsin solution. Incubation at 37° C. for 5 min in an incubator. • Termination by addition of 7 ml of medium • Centrifugation of the cells (for example for 5 minutes at 150×g (1200 rpm)) • Remove medium by tilting and resuspend cells in fresh medium • Cell counting, for example using Trypan Blue solution (1:2 dilution) in counting chamber • Dilute cell suspension to 25,000 cells/ml and plate out 100 μl/well (2500 cells/well) • Incubation of the microtitre plate at 37° C. in 10% CO2 overnight
• The test substances are dissolved, for example, in DMSO and subsequently employed in corresponding concentration (if desired in a dilution series) in the cell culture medium. The dilution steps can be adapted depending on the efficiency of the active ingredients and the desired spread of the concentrations. Cell culture medium is added to the test substances in corresponding concentrations. Within the dilution series, the final concentration of DMSO in the cell culture medium can be constant (for example at 0.5%). The addition of the test substances to the cells can take place one day after sowing of the cells. To this end, the medium is removed from the cells, and the test substance dilutions are added to the cells (in the desired concentrations in the cell culture medium). […]
• The medium is removed from the cells, and the cells are washed with PBS. […] An absorption measurement is carried out at corresponding wavelength, for example 550 nm, in a microtitre plate reader (for example TECAN Genios No F129004). […]
The absorbance value of the medium control (no cells and test substances used) is subtracted from all other absorbance values. The controls (cells without test substance) with the solvent DMSO are set equal to 100 percent, and all other absorbance values are set in relation thereto (for example in % of control):
IC50 values (50% inhibition) are determined with the aid of statistics programs, such as, for example, RS1.
The IC50 is the midpoint of a concentration-inhibition curve. Consider `CNc1nccc(-c2c[nH]c3ncccc23)n1` [Compound A3], for which the IC50 was in the range of 0.5 to 5 µM.
As for `COCCn1cc(-c2ccnc(Nc3ccccc3)n2)c2cccnc21` [Compound A2, 1-(2-methoxyethyl)-3-(2-phenylaminopyrimidin-4-yl)-1H-pyrrolo[2,3-b]pyridine], the figure is 5 to 50 µM.
`CNc1nccc(-c2cn(CCOC)c3ncccc23)n1` [Compound A4] gave a 50% inhibitory concentration (IC50) of 5 to 50 µM.
Then `c1ccc(Nc2nccc(-c3c[nH]c4ncccc34)n2)cc1` [Compound A1, 3-(2-phenylaminopyrimidin-4-yl)-1H-pyrrolo[2,3-b]pyridine], with 0.05 to 0.5 µM.

For the origin of these results see patent US20100173923A1, “4 (PYRROLOPYRIDINYL)PYRIMIDINYL-2-AMINE DERIVATIVES” (priority 2006, published 2010).
